As usually defined, the IC50 is the concentration that inhibits the measured activity by half.

Assay [1] in a line: Cytotoxicity against human Hep3B cells assessed as growth inhibition after 48 hrs by MTT assay. It counts as functional, cell-based, Hep 3B2. On the technique in general: Tetrazolium dyes change colour on reduction, which living cells bring about.
A further assay deals with A549. The experiment in a line: Cytotoxicity against human A549 cells assessed as growth inhibition after 48 hrs by MTT assay. The class given is functional, cell-based. To be noted: A549, 48 h.
The subject of another assay is Bcap37. The experiment in a line: Cytotoxicity against human Bcap37 cells assessed as growth inhibition after 48 hrs by MTT assay. It counts as functional, cell-based. To be noted: Bcap37, 48 h.
In a further assay the test system is MCF7. The experiment in a line: Cytotoxicity against human MCF7 cells assessed as growth inhibition after 48 hrs by MTT assay. The settings on record: MCF7, 48 h. It counts as functional, cell-based.
A further assay concerns HepG2. Kind of assay: Cytotoxicity against human HepG2 cells assessed as growth inhibition after 48 hrs by MTT assay. The class given is functional, cell-based. The settings on record: HepG2, 48 h.

Turning to `C[C@@H]1CC[C@]2(OC1)O[C@@H]1[C@@H](O)[C@@H]3[C@H]4CC[C@@H]5C[C@H](O[C@H]6O[C@@H](CO)[C@@H](O)[C@@H](O)[C@@H]6O[C@H]6O[C@@H](CO)[C@H](O)[C@@H](O)[C@@H]6O)CC[C@@]5(C)[C@@H]4CC[C@@]3(C)[C@@H]1[C@H]2C`, the IC50 (in assay [1]; with A549; in the assay on Bcap37; in the assay with MCF7; in the assay with HepG2) was greater than 50 µM in each case.

Take `CC(=O)C1=C[C@H](O)[C@H]2[C@@H]3CC[C@H]4C[C@@H](O[C@@H]5O[C@H](CO)[C@H](O)[C@H](O)[C@H]5O[C@@H]5O[C@H](CO)[C@@H](O)[C@H](O)[C@H]5O)CC[C@]4(C)[C@H]3CC[C@]12C`: the IC50 (in assay [1]; with A549; in the assay with Bcap37; in the assay with MCF7; in the assay with HepG2) was greater than 50 µM throughout.

`C[C@@H]1C(=O)O[C@H]2C[C@H]3[C@@H]4CC[C@H]5C[C@@H](O)[C@@H](O)C[C@]5(C)[C@H]4CC[C@]3(C)[C@H]21`: the IC50 (in assay [1]; in the assay with A549; in the assay with Bcap37; with MCF7; in the assay with HepG2) was greater than 50 µM in each case.

Take `C[C@@H]1CC[C@@]2(OC1)O[C@H]1C[C@H]3[C@@H]4CC[C@H]5C[C@@H](O[C@H]6O[C@@H](CO)[C@@H](O)[C@@H](O)[C@@H]6O[C@H]6O[C@@H](CO)[C@H](O)[C@@H](O)[C@@H]6O)[C@@H](O)C[C@]5(C)[C@H]4CC[C@]3(C)[C@H]1[C@@H]2C`: the IC50 (in assay [1]; in the assay on A549; with Bcap37; with MCF7; in the assay with HepG2) was greater than 50 µM in each case.

Regarding `C[C@H]1CC[C@@]2(OC1)O[C@H]1C[C@H]3[C@@H]4CC[C@H]5C[C@@H](OC6O[C@H](CO)[C@@H](O)[C@H](O)[C@@H]6O[C@@H]6O[C@H](CO)[C@@H](O)[C@H](O)[C@H]6O)CC[C@]5(C)[C@H]4CC[C@]3(C)[C@H]1[C@@H]2C` (some centres not stated), the IC50 in assay [1] was 13.8 µM; in the assay on A549 it was 8.42 µM; with Bcap37, 9.5 µM; in the assay with MCF7, 25.5 µM; in the assay on HepG2, 6.42 µM.

Take `C[C@@H](CCC1(O)O[C@H]2C[C@H]3[C@@H]4CC[C@H]5C[C@@H](O)CC[C@]5(C)[C@H]4CC[C@]3(C)[C@H]2[C@@H]1C)CO[C@@H]1O[C@H](CO)[C@@H](O)[C@H](O)[C@H]1O` (some centres not stated): the IC50 (in assay [1]; with A549; in the assay on Bcap37; in the assay with MCF7; in the assay with HepG2) was greater than 50 µM each time.

For the compound `C[C@@H]1C(=O)O[C@H]2C[C@H]3[C@@H]4CC[C@H]5C[C@@H](O[C@@H]6O[C@H](CO)[C@H](O)[C@H](O)[C@H]6O[C@@H]6O[C@H](CO)[C@@H](O)[C@H](O)[C@H]6O)CC[C@]5(C)[C@H]4CC[C@]3(C)[C@H]21`, the IC50 (in assay [1]; with A549; in the assay with Bcap37; in the assay with MCF7; in the assay on HepG2) was greater than 50 µM each time.

Take `C[C@@H]1CO[C@]2(O[C@@H]3C[C@@H]4[C@H]5CC[C@@H]6C[C@H](O[C@H]7O[C@@H](CO)[C@@H](O)[C@@H](O)[C@@H]7O[C@H]7O[C@@H](CO)[C@H](O)[C@@H](O)[C@@H]7O)CC[C@@]6(C)[C@@H]5CC[C@@]4(C)[C@@H]3[C@H]2C)[C@H](O)C1`: the IC50 (in assay [1]; with A549; with Bcap37; in the assay on MCF7; in the assay on HepG2) was greater than 50 µM in each case.

For `C[C@H]1CC[C@@]2(OC1)O[C@H]1C[C@H]3[C@@H]4CC[C@H]5C[C@@H](O[C@@H]6O[C@H](CO)[C@H](O)[C@H](O)[C@H]6O[C@@H]6O[C@H](CO)[C@@H](O)[C@H](O)[C@H]6O)CC[C@]5(C)[C@H]4CC[C@]3(C)[C@H]1[C@@H]2C`, the IC50 in assay [1] came out at 0.35 µM; in the assay on A549, 7.33 µM; with Bcap37, 5.37 µM; in the assay with MCF7, 20.5 µM; in the assay with HepG2, 4.64 µM.

In the case of `C=C1CC[C@@]2(OC1)O[C@H]1C[C@H]3[C@@H]4CC[C@H]5C[C@@H](O[C@@H]6O[C@H](CO)[C@H](O)[C@H](O)[C@H]6O[C@@H]6O[C@H](CO)[C@@H](O)[C@H](O)[C@H]6O)CC[C@]5(C)[C@H]4CC[C@]3(C)[C@H]1[C@@H]2C`, the IC50 in assay [1] was determined as 9.98 µM; in the assay on A549, 5.62 µM; with Bcap37, 7.72 µM; with MCF7, 13.1 µM; in the assay on HepG2, 6.47 µM.

Take `C[C@H]1CC[C@@]2(OC1)O[C@H]1C[C@H]3[C@@H]4CC[C@H]5C[C@@H](O)CC[C@]5(C)[C@H]4CC[C@]3(C)[C@H]1[C@@H]2C`: the IC50 (in assay [1]; with A549; in the assay on Bcap37; with MCF7; in the assay with HepG2) was greater than 50 µM throughout.

Turning to `O=c1[nH]cc(F)c(=O)[nH]1` [FLUOROURACIL], the IC50 in assay [1] came to 23 µM; in the assay with Bcap37, 5.18 µM.

The record behind these values is ChEMBL document CHEMBL3808273, “Steroids from the rhizome of Anemarrhena asphodeloides and their cytotoxic activities” (Bioorg Med Chem Lett, 2016).
